Experimental data as given in a melting point compilation (Tetko et al.; mined from patent text by program, amines drawn as free bases though some values may be those of a salt).

Structure (SMILES) | melting point [°C]
CCOC(=O)C(Cl)=Cc1cc(NC(N)=O)ccc1Cl | 209 to 210
Cc1cc(N2CCCC2)c([N+](=O)[O-])c(Cl)n1 | 151 to 156
CCCN1C(=O)CN(c2ccccc2)C1=O | 97
O=C(Nc1ccc(C(=O)N2C=C3CC=CN3Cc3ccccc32)cc1)c1ccccc1F | 257 to 260
N#Cc1cc(Br)cc(C(F)(F)F)n1 | 88.5
O=[N+]([O-])C(Br)(Br)CCO | 22 to 25
CSCC12CCC(=CF)C=C1CCC1C3CCC(=O)C3(C)CCC12 (stereo not given) | 146 to 147
O=C(NCc1ccccc1)c1cccc(-c2nc(=O)c3ccccc3s2)n1 | 197 to 198
CCC1(C(F)(F)F)C(=O)NC(=O)NC1=O | 208 to 209
CCOC(=O)c1c([N+](=O)[O-])ccc(OC)c1OC | 70 to 72
Cc1ccc(C(=O)O)c(F)c1C1=NC(C)(C(C)C)C(=O)N1 (stereo not given) | 164 to 170
Cc1oncc1C(=O)N1CCC[C@H](c2nc(-c3cc4ccccc4[nH]3)no2)C1 | 163 to 164
Cn1nnnc1-c1cn(C)c2cc(OC(F)F)ccc2c1=O | 225 to 228
O=C(Cc1ccc2ccccc2c1)N[C@H]1C[C@H](C(=O)O)Nc2cc(Cl)cc(Cl)c21 (relative stereo) | 217 to 219
COC(=O)CCCc1cc2nc(Cl)ccc2n1S(=O)(=O)c1cccc2nc(C)sc12 | 138
CN1CCC(C2c3ccccc3C=Cc3ccccc32)CC1 | 127
O=C(O)CCSC1c2ccc(SCC(=O)O)cc2COc2ccc(OCc3ccc4ccc(Cl)cc4n3)cc21 (stereo not given) | 165 to 167
Nc1c(-c2cc(Cl)ccc2O)c2ccccc2[nH]c1=O | 265 to 268
O=C(c1ccc2c(c1)OCCO2)c1ccc2noc(-c3cccc(Cl)c3)c2c1 | 195
CN(C)C=Cc1ncc([N+](=O)[O-])n1CCN(C)C | 81 to 82
CC(=O)Oc1c(Cl)c(C)nc(C)c1-c1ccc(Oc2ccc(OC(F)(F)F)cc2)cc1 | 78 to 80
CC1CCCC(C)N1S(=O)(=O)N[C@@H](Cc1ccc(NC(=O)c2c(Cl)cncc2Cl)cc1)C(=O)O (stereo not given in full) | 162
CCC(=O)N(c1ccncc1)c1c[nH]c2ccccc12 | 166 to 168

Structure (SMILES) | melting point [°C]
Cc1cc(C(C)(C)C)c(O[Si](C)(C)Cl)c(C(C)(C)C)c1 | 119 to 121
OC1CN(Cc2ccccc2)C1 | 64.5 to 65.5
CCOC(=O)c1cn(C2CC2)c2c(F)c(C)c(F)cc2c1=O | 177 to 179
COc1ccc(F)c([N+](=O)[O-])c1C | 38 to 40
CC1(C(F)(F)F)C=C(C(=O)NCCC#N)c2cc([N+](=O)[O-])ccc2O1 (stereo not given) | 191 to 193
COc1cc(OC)c(C2=NC(NC(=O)Nc3ccccc3C)C(=O)N(C)c3ccccc32)c(OC)c1 (stereo not given) | 50
Oc1nc2ccc3cn[nH]c3c2nc1O | > 300
COc1ccc(Cn2ncc(N3CCOCC3)c(C=NO)c2=O)cc1 | 166 to 168
COc1ccc2cc(NC(=O)OC(C)(C)C)ccc2c1 | 124 to 127
O=C(OCc1ccccc1)N(CCNC(=O)C(F)(F)F)CCNC(=O)C(F)(F)F | 131 to 132
Nc1cccc(C2=NNC(=O)Cc3cc4c(cc32)OCO4)c1 | 118 to 122
CC1(CNC(=O)OCc2ccc(Cl)cc2)Cn2cc([N+](=O)[O-])nc2O1 (stereo not given) | 221 to 222
CCOC(=O)C(C)(C)Oc1ccc(-c2ccc(CC(=O)Nc3cc(Cl)ccc3OC)cc2)cc1 | < 20
Cc1cc(CNC(=O)c2ccnc(N3CCN(Cc4ccc(F)cc4)C3=O)c2)no1 | 153 to 155
Cc1ccc(Cn2ncn(-c3nc(C)c(C(=O)NCc4csc(C(C)C)n4)s3)c2=O)cc1 | 151 to 153
COc1ccc2c(c1)c(=O)oc1c(C(C)=O)c(O)ccc12 | 197 to 199
CS(=O)(=O)N1CCC(NC(=O)Nc2cccc(C(F)(F)F)c2)CC1 | 226 to 229
c1ccc(-c2cc3c(nn2)-c2ccccc2CN3)cc1 | 250 to 252
CCOC(=O)c1c(O)c2cc(C)ccc2n(C)c1=O | 132
O=[N+]([O-])c1cnc2ccc(S)cc2c1-c1ccccc1 | 160 to 163
COc1ccc2nc(N3CCNCC3)cc(C(F)(F)F)c2c1 | 130
CCCCc1nc2c(N)nc3ccccc3c2n1CCCNS(=O)(=O)c1cccc2c(N(C)C)cccc12 | 216 to 218

Now from value to compound:

melting point [°C] | Structure (SMILES)
135 to 136 | CCS(=O)(=O)c1c(Cl)nc(Cl)nc1Cl
120 to 122 | CC1(C)CC(SCc2c(C(F)(F)F)n[nH]c2Cl)=NO1
182 to 183 | COc1cc2c(cc1OC)-c1cc(N(c3c(C)cc(C)cc3C)C(C)C)nc(=O)n1CC2
248 | O=C(O)C1CSC(C2CCCCC2)N1 (mixture of isomers)
94.5 to 95 | CCN(Cc1ccc(C(=O)O)cc1)c1cc(Br)ccc1OCc1ccccc1
117 to 118 | Cc1c(C)c2c(c(C)c1NC(=O)NCC(C)(C)CO)C(c1ccc(C(C)C)cc1)CO2 (stereo not given)
155 | CN1CCCc2cc(OC(=O)Nc3ccc(Br)cc3)ccc21
137 to 139 | Cc1cc2c(s1)CCCN(CCN1CCN(c3ncccn3)CC1)C2=O
263 to 265 | Cc1nc2cc(NC(=O)c3cc4cc(C(F)(F)F)cnc4n3Cc3cccc(F)c3)ccc2n1C
163 to 164 | CCC(=O)NC/C=C1\CCc2ncc3c(c21)CCO3
228 to 231 | Nc1c(NCCCN(Cc2ccccc2)c2ccccn2)c(=O)c1=O
189 to 190 | CC1(c2ccc(OCc3ccccc3)c(Br)c2)C(=O)Nc2cc(Cl)cc(Cl)c2C1=O (stereo not given)
232 | CCN(C(C)=O)c1ccc2c(c1)Cc1c-2[nH]c2ccccc12
> 200 | N#Cc1c(N2CCc3ccccc3CC2)nc(C2CC2)[nH]c1=O
72 | CCCCc1c(-c2cnccn2)ssc1=S
180 | O=C(c1ccccc1)c1cc(-c2ccc(Cl)cc2)c(N2CCOCC2)s1
239 to 240 | NC(=O)c1ccc(C(c2ccccc2)(c2ccccc2)c2ccccc2)cn1
45 | CCOC(=O)CC(C)(O)c1ccc(C2CCCCC2)cc1 (stereo not given)
> 200 | CN(C)CC(=O)NCC#Cc1cnc2c(c1)N(Cc1c(Cl)cccc1Cl)CCN2
115 | COC(=O)C(=NO)c1ccccc1COc1ccccc1C
169 to 170 | CCOC(=O)C1=C(C)NC(CN2C(=O)c3ccccc3C2=O)=C(C(=O)OCC)C1c1ccccc1 (stereo not given)
81 | COC(=O)c1cc(C(=O)c2c(C)c(-c3cccc(OCC(=O)OC(C)(C)C)c3)c3ccccn23)ccc1N
77 to 78 | COc1ccc(OCCCBr)c(C2Sc3ccccc3N(C)C2=O)c1 (single isomer, unassigned; (-))
226 | O=C(N1CCC(n2c(=O)[nH]c3ncccc32)CC1)n1ccnc1
118 to 119 | CCOC(=O)COc1cc(-n2nc(C)n(C(F)F)c2=O)c(Cl)cc1Cl
128 to 131 | Cc1c(N)c(C)c(C(C)C)c2c1CC(C)(CN1CCC(c3ccccc3)CC1)O2 (stereo not given)
60 to 61 | CCCCCCCCCCCCCCOc1cc(C(=O)Cl)ccc1OC
155 | COc1ccc(C(=O)C(N=C=S)c2ccc(OC)cc2)cc1 (stereo not given)

melting point [°C] | Structure (SMILES)
161 to 162 | O=C1CCCC2ON(Cc3ccccc3)C3C(CSC23)N1 (stereo not given)
187 to 188 | CC1=C(C(=O)NC(C)(C)C)C(c2ccccc2Cl)C(C(=O)O)=C(COCCn2c(C)nc3ccccc32)N1 (stereo not given)
185 to 189 | COc1ccc(-c2cc(=Nc3c(C)cc(C)cc3C)n(C)c(N3CCNCC3)n2)cc1OC
140 to 142 | COC1(c2cc(F)cc(Sc3ccc(/C(C)=N/O)c(O)c3)c2)CCOCC1
51 to 54 | COCOc1cccc2c1CCC2=O
205 to 208 | COC(=O)c1cnc(N2CCNC2=O)s1
171 to 172 | O=C(O)COc1ccc2cc(-c3ccc(-c4ccccc4)n3Cc3ccccc3)ccc2c1
171 to 174 | CC(C)CC(NC(=O)C(NC(=O)OCc1ccccc1)C(C)C)C(=O)NC(CCCCNC(=O)OCc1ccccc1)C(=O)Oc1cccc2ccccc12 (stereo not given)
165 | CCN(CC)CCSC1=C(C#N)C(c2ccccc2)(c2cccs2)C(=O)N1 (stereo not given)
137 | COc1cccc(N(CC(=O)N(C)c2ccccc2)C(=O)CN2C(=O)c3ccccc3C2=O)c1
175 | Oc1ccc2c(c1)CC(NCC(O)c1cccc(Cl)c1)CC2 (stereo not given)
53 to 54 | CCN(C(=S)Oc1ccc(C(C)C)cc1)c1cccc(OC)n1
153 to 155 | O=C(O)/C=C/c1ccc(OCc2ccccc2)cc1OCc1ccccc1
143 to 144 | COC(=O)c1ccc(NC(=O)C(N)c2ccc3c(c2)C(C)(C)CCC3(C)C)n1C (stereo not given)
64 | C#CCn1c(C(F)(F)F)c(CO)oc1=O
130 to 134 | Cc1cc(Cl)ccc1OCC(=O)N1Cc2ccc(C(=O)c3cccc4ccccc34)n2Cc2ccccc21
152 to 155 | O=C1CCC2(N1)C1C=CC(C1)C2c1ccccc1 (stereo not given)
137 to 138 | CC(Cl)C(=O)c1ccc(OCCCN2C(=O)c3ccccc3C2=O)cc1 (stereo not given)
102 to 103 | Cc1cc(-c2c(C)ccc(C(=S)OC(C)(C)C)c2C)on1
161 to 163 | CCC(=O)N=C(NC(=O)OC)Nc1cc(Oc2ccccc2)ccc1NC(C)=O
117 to 118 | Cc1cc(Br)sc1-c1nc(-c2c(F)cccc2Cl)nn1C
205 to 206 | O=C1NC2(CCc3ccccc32)c2ccccc21 (stereo not given)
264 to 266 | CCCc1nc2ccc(Cl)nc2c(=O)[nH]1
97 to 98 | CCOC(=O)Cc1ccc2oc3ccccc3c(=O)c2c1
186 to 189 | COC(=O)c1cc2cc(OC)c(OC)cc2c(-c2ccnc(-n3c(=O)cc(OCC(=O)OCc4ccccc4)c4ccccc43)c2)c1C(=O)OC
187 to 189 | COc1ccc(-c2nc(-c3ccc(F)cc3)c(-c3ccc(S(C)(=O)=O)cc3)s2)cc1
147 to 149 | O=S(CCl)c1ccc(-n2cnnn2)cc1 (stereo not given)
